Among the data in ChEMBL document CHEMBL1155667, “A cytotoxic 5alpha,8alpha-epidioxysterol from a soft coral Sinularia species” (2000) are EC50 values, retold here.

Holding throughout (type): functional
Common to all, as to conditions: read-out: ED50 (the source's name)

The test system of one test is P388. As to the kind of experiment: Cytotoxicity against mouse P388 cells by modified MTT assay.
The test system of a further test is KB. As to the kind of experiment: Cytotoxicity against human KB cells by modified MTT assay. (Tetrazolium assays rely on reduction of a dye to a coloured formazan, in cell work by metabolically active cells.)
The subject of the next test is A549. As to the kind of experiment: Cytotoxicity against human A549 cells by modified MTT assay.
In another test the test system is HT-29. As to the kind of experiment: Cytotoxicity against human HT29 cells by modified MTT assay.

Values after ≈ are worked out from the molar mass of the structure shown.

As for `C=C(CC[C@@H](C)[C@H]1CC[C@H]2[C@@H]3C[C@@H](O)[C@@]4(O)C[C@@H](O)C[C@H](O)[C@]4(C)[C@H]3CC[C@]12C)C(C)C`, the EC50 in the test on P388 was 8.3 µg/mL (≈ 18.5 µM); with KB it was 1.9 µg/mL (≈ 4.23 µM); in the test on A549, 10.8 µg/mL (≈ 24.1 µM); with HT-29, 1.5 µg/mL (≈ 3.34 µM).

Turning to `CC(C)[C@@H](C)[C@H]1C[C@@H]1[C@@H](C)[C@H]1CC[C@@H]2[C@]1(C)CC[C@H]1[C@]23C=C[C@]2(C[C@@H](O)CC[C@]12C)OO3`, the EC50 was found to be 0.4 µg/mL (≈ 0.904 µM) in the test on P388, 2.1 µg/mL (≈ 4.74 µM) with KB, 2.7 µg/mL (≈ 6.1 µM) with A549 and 1.4 µg/mL (≈ 3.16 µM) in the test with HT-29.

Consider `CC(=O)[C@H]1CC[C@H]2[C@@H]3CC=C4C[C@@H](O)CC[C@]4(C)[C@H]3CC[C@]12C` [PREGNENOLONE], for which the EC50 with P388 is 7.8 µg/mL (≈ 24.6 µM); with KB, more than 50 µg/mL; with A549, 8.6 µg/mL (≈ 27.2 µM); in the test on HT-29, 0.7 µg/mL (≈ 2.21 µM).
